In US10869481B2, “Method for controlling nematode pests” (Syngenta Participations AG, priority 2014, dated 2020):

Tests used:
Type in all cases: in vivo, Heterodera schachtii
[1] = test system: sugar beet nematode (SBN); assay: Root and sugar yield field trials, susceptible sugar beet seeds, seed treatment
Method: (§1) The root and sugar yield response study illustrates the unexpected increase in root and sugar yield achieved by using a nematode-antagonistic biocontrol agent with SBN resistant or tolerant varieties. Multiple field trials were conducted across Nebraska, Colorado, and Idaho. The results of four different trials are presented below utilizing seed treatments on sugar beet seeds to combat nematodes.
(§2) The tests presented below were run on both susceptible and SBN tolerant varieties of sugar beet seeds. Each trial, on both the susceptible and tolerant variety, was run with a Control check that included no nematicide, a treatment on the seed with Pasteuria nishizawae at about 5×10^6 spores/seed, a treatment on the seed with Pasteuria nishizawae at about 1×10^7 spores/seed, a treatment on the seed with Pasteuria nishizawae at about 2×10^7 spores/seed and a treatment on the seed with Pasteuria nishizawae at about 4×10^7 spores/seed.
(§3) The results of trails are presented below where yield data has been averaged.
Susceptible Sugar Beet Seeds

[2] = test system: sugar beet nematode (SBN); assay: Root and sugar yield field trials, tolerant sugar beet seeds, seed treatment; details: average of four field trials
Method: as §1, §2, §3
Tolerant Sugar Beet Seeds

[3] = test system: sugar beet nematode (SBN); assay: Yield response field trials, INVICTA susceptible sugar beet seeds, seed treatment
Method: as §1, with “The” for “The root and sugar”, “in” for “in root and sugar”, “Germany, Czech Republic” for “Nebraska, Colorado,”, “Denmark.” for “Idaho.”, “nine” for “four”
(§4) The tests presented below were run on both susceptible and SBN tolerant varieties of sugar beet seeds. In particular, the susceptible variety is known by the trade name INVICTA and the tolerant variety is known by the trade name CACTUS. Each trial, on both the susceptible and tolerant variety, was run with a Control check that included no nematicide, a treatment on the seed with Pasteuria nishizawae at about 1×10^6 spores/seed, a treatment on the seed with Pasteuria nishizawae at about 1×10^7 spores/seed, and a treatment on the seed that included a commercial soil applied standard nematicide.
as §3
INVICTA Susceptible Sugar Beet Seeds

[4] = test system: sugar beet nematode (SBN); assay: Yield response field trials, CACTUS tolerant sugar beet seeds, seed treatment; details: for White Sugar yield/ha: CACTUS tolerant sugar beet, average of nine field trials
Method: as §1, with “The” for “The root and sugar”, “in” for “in root and sugar”, “Germany, Czech Republic” for “Nebraska, Colorado,”, “Denmark.” for “Idaho.”, “nine” for “four”
as §4, §3
CACTUS Tolerant Sugar Beet Seeds

[5] = 1 × 10^7 spores/seed, average of four field trials
[6] = 2 × 10^7 spores/seed, average of four field trials
[7] = 4 × 10^7 spores/seed, average of four field trials

## Pasteuria nishizawae
[1]; [5]
  Root Yield: 19.9 Ton/Acre
  White Sugar: 2.5 Ton/Acre
[1]; [6]
  Root Yield: 19.8 Ton/Acre
  White Sugar: 2.3 Ton/Acre
[1]; [7]
  Root Yield: 19.5 Ton/Acre
  White Sugar: 2.4 Ton/Acre
[1]; 5 × 10^6 spores/seed, average of four field trials
  Root Yield: 17.4 Ton/Acre
[1]; 5 × 10^6 spores/seed, average of four field trials (Nebraska, Colorado, Idaho)
  White Sugar: 2.0 Ton/Acre
[2]; 1 × 10^7 spores/seed
  Root Yield: 27.2 Ton/Acre
  White Sugar: 3.5 Ton/Acre
[2]; 2 × 10^7 spores/seed
  Root Yield: 27.2 Ton/Acre
  White Sugar: 3.7 Ton/Acre
[2]; 4 × 10^7 spores/seed
  Root Yield: 26.7 Ton/Acre
  White Sugar: 3.5 Ton/Acre
[2]; 5 × 10^6 spores/seed
  Root Yield: 26.1 Ton/Acre
  White Sugar: 3.6 Ton/Acre
[3]; seed treatment 1 × 10^6 spores/seed, average of nine field trials (Germany, Czech Republic, Denmark)
  White Sugar yield/ha: 11.09 /ha
[3]; seed treatment 1 × 10^7 spores/seed, average of nine field trials
  White Sugar yield/ha: 11.20 /ha
[4]; seed treatment 1 × 10^6 spores/seed
  White Sugar yield/ha: 12.65 /ha
[4]; seed treatment 1 × 10^7 spores/seed
  White Sugar yield/ha: 12.93 /ha
[4]; tolerant varieties treated with Pasteuria, statement in words
  yield compared with commercial standards: showed an increase over commercial standards
